49 compounds from patent US7022856B2, “Carboline derivatives” (LIlly Icos LLC., priority 2001, dated 2006) can be followed below.

The term IC50 denotes the concentration at which inhibition is half-maximal.

The target of the assay is T1, human recombinant PDE5 (Homo sapiens, UniProt O76074).
T1 construct: host or cells: Saccharomyces cerevisiae strain BJ2-54 (ATCC 74465)
Put plainly: cGMP-PDE inhibition, one-step assay with human recombinant PDE5. Type of assay: biochemical. To be noted: 0.15 μM 8-[H3]-cGMP, 30 min. As to the method:
The compounds of structural formula (I) were tested for an ability to inhibit PDE5. The ability of a compound to inhibit PDE5 activity is related to the IC50 value for the compound, i.e., the concentration of inhibitor required for 50% inhibition of enzyme activity. The IC50 value for compounds pounds of structural formula (I) were determined using recombinant human PDE5.
Recombinant production of human PDE1B, PDE2, PDE4A, PDE4B, PDE4C, PDE4D, PDE5, and PDE7 was carried out similarly to that described in Example 7 of U.S. Pat. No. 5,702,936, incorporated herein by reference, except that the yeast transformation vector employed, which is derived from the basic ADH2 plasmid described in Price et al., Methods in Enzymology, 185, pp. 308–318 (1990), incorporated yeast ADH2 promoter and terminator sequences and the Saccharomyces cerevisiae host was the protease-deficient strain BJ2-54 deposited on Aug. 31, 1998 with the American Type Culture Collection, Manassas, Va., under accession number ATCC 74465. Transformed host cells were grown in 2×SC-leu medium, pH 6.2, with trace metals, and vitamins. After 24 hours, YEP medium-containing glycerol was added to a final concentration of 2×YET/3% glycerol. Approxiately 24 hr later, cells were harvested, washed, and stored at −70° C. […]
Cell pellets (29 g) were thawed on ice with an equal volume of Lysis Buffer (25 mM Tris HCl, pH 8, 5 mM MgCl2, 0.25 mM DTT, 1 mM benzamidine, and 10 μM ZnSO4). Cells were lysed in a Microfluidizer® (Microfluidics Corp.) using nitrogen at 20,000 psi. The lysate was centrifuged and filtered through 0.45 μm disposable filters. The filtrate was applied to a 150 mL column of Q SEPHAROSE® Fast-Flow (Pharmacia). The column was washed with 1.5 volumes of Buffer A (20 mM Bis-Tris Propane, pH 6.8, 1 mM MgCl2, 0.25 mM DTT, 10 μM ZnSO4) and eluted with a step gradient of 125 mM NaCl in Buffer A followed by a linear gradient of 125–1000 mM NaCl in Buffer A. Active fractions from the linear gradient were applied to a 180 mL hydroxyapatite column in Buffer B (20 mM Bis-Tris Propane (pH 6.8), 1 mM MgCl2, 0.25 mM DTT, 10 μM ZnSO4, and 250 mM KCl). After loading, the column was washed with 2 volumes of Buffer B and eluted with a linear gradient of 0–125 mM potassium phosphate in Buffer B. Active fractions were pooled, precipitated with 60% ammonium sulfate, and resuspended in Buffer C (20 mM Bis-Tris Propane, pH 6.8, 125 mM NaCl, 0.5 mM DTT, and 10 μM ZnSO4). The pool was applied to a 140 mL column of SEPHACRYL® S-300 HR and eluted with Buffer C. Active fractions were diluted to 50% glycerol and stored at −20° C.
cGMP-PDE activity of compounds of the present invention was measured using a one-step assay adapted from Wells et al., Biochim. Biophys. Acta, 384, 430 (1975). The reaction medium contained 50 mM Tris-HCl, pH 7.5, 5 mM magnesium acetate. 250 μg/ml 5′-Nucleotidase, 1 mM EGTA, and 0.15 μM 8-[H^3]-cGMP. Unless otherwise indicated, the enzyme used was a human recombinant PDE5 (ICOS Corp., Bothell, Wash.).
Compounds of the invention were dissolved in DMSO finally present at 2% in the assay.
With `CN1CCN(CC(=O)Nc2ccc3sc(C(=O)N4CCc5c([nH]c6ccccc56)C4c4ccc5c(c4)OCO5)cc3c2)CC1` (stereo not shown) [Example 28], the IC50 is 120 nM.

For `O=C(CN1CCCCC1)Nc1ccc2sc(C(=O)N3CCc4c([nH]c5ccccc45)C3c3ccc4c(c3)OCO4)cc2c1` (stereo not shown) [Example 29], the IC50 worked out at 300 nM. Next, `COC(=O)CC(=O)Nc1ccc2sc(C(=O)N3CCc4c([nH]c5ccccc45)C3c3ccc4c(c3)OCO4)cc2c1` (stereo not shown) [Example 30]: 60 nM.

Consider `O=C(Cn1ccnc1)Nc1ccc2sc(C(=O)N3CCc4c([nH]c5ccccc45)C3c3ccc4c(c3)OCO4)cc2c1` (stereo not shown) [Example 31], for which the IC50 is 40 nM. Regarding `O=C(c1cc2cccc(Br)c2s1)N1CCc2c([nH]c3ccccc23)C1c1ccc2c(c1)OCO2` (stereo not shown) [Example 32], the IC50 came out at 480 nM.

For `O=C(c1cc2c([N+](=O)[O-])cccc2s1)N1CCc2c([nH]c3ccccc23)C1c1ccc2c(c1)OCO2` (stereo not shown) [Example 33], the IC50 worked out at 200 nM. For the compound `O=C(c1ccc([N+](=O)[O-])s1)N1CCc2c([nH]c3ccccc23)C1c1ccc2c(c1)OCO2` (stereo not shown) [Example 34], the IC50 turned out to be 460 nM. For `O=C(c1cc2c(Br)cccc2s1)N1CCc2c([nH]c3ccccc23)C1c1ccc2c(c1)OCO2` (stereo not shown) [Example 35], the IC50 amounted to 410 nM. The result for `CC(=O)c1ccc(C(=O)N2CCc3c([nH]c4ccccc34)C2c2ccc3c(c2)OCO3)s1` (stereo not shown) [Example 36] reads 110 nM. As for `COc1ccc2cc(C(=O)N3CCc4c([nH]c5ccccc45)C3c3ccc4c(c3)OCO4)sc2c1` (stereo not shown) [Example 37], the IC50 worked out at 40 nM.

As to `COc1ccc2sc(C(=O)N3CCc4c([nH]c5ccccc45)C3c3ccc4c(c3)OCO4)cc2c1` (stereo not shown) [Example 38], the IC50 was determined as 30 nM. The result for `O=C(c1ccc(CN2CCOCC2)s1)N1CCc2c([nH]c3ccccc23)C1c1ccc2c(c1)OCO2` (stereo not shown) [Example 39] reads 400 nM; that for `COCc1ccc(C(=O)N2CCc3c([nH]c4ccccc34)C2c2ccc3c(c2)OCO3)s1` (stereo not shown) [Example 40], 320 nM. Next, `CN(C)CC(=O)Nc1ccc(C(=O)N2CCc3c([nH]c4ccccc34)C2c2ccc3c(c2)OCO3)o1` (stereo not shown) [Example 41]: 240 nM; `CN(C)Cc1ccc(C(=O)N2CCc3c([nH]c4ccccc34)C2c2ccc3c(c2)OCO3)s1` (stereo not shown) [Example 42]: 850 nM. Take `CN(C)Cc1ccc2sc(C(=O)N3CCc4c([nH]c5ccccc45)C3c3ccc4c(c3)OCO4)cc2c1` (stereo not shown) [Example 43]: the IC50 was 290 nM.

Take `Nc1ccc(C(=O)N2CCc3c([nH]c4ccccc34)C2c2ccc3c(c2)OCO3)s1` (stereo not shown) [Example 44]: the IC50 is 490 nM. The result for `COc1cc2nc(N3CCc4c([nH]c5ccccc45)C3c3ccc4c(c3)OCO4)[nH]c(=O)c2cc1OC` (stereo not drawn) [Example 46, 2-(1-Benzo[1,3]dioxol-5-yl-1,3,4,9-tetrahydro-β-carbolin-2-yl) -6,7-dimethoxy-3H-quinazolin-4-one] reads 5 nM. The result for `COc1cc2nc(N3CCc4c([nH]c5ccccc45)C3c3ccc4c(c3)OCO4)nc(Cl)c2cc1OC` (stereo not drawn) [Example 47a, 1-Benzo[1,3]dioxol-5-yl-2-(4-chloro-6,7-dimethoxyquinazolin-2-yl)-2,3,4,9-tetrahydro-1H-β-carboline] reads 27 nM; that for `COc1cc2cnc(N3CCc4c([nH]c5ccccc45)C3c3ccc4c(c3)OCO4)nc2cc1OC` (stereo not drawn) [Example 47b, 1-Benzo[1,3]dioxol-5-yl-2-(6,7-dimethoxyquinazolin-2-yl)-2,3,4,9-tetrahydro-1H-β-carboline], 5 nM; that for `O=C(O)CC(=O)Nc1ccc2sc(N3CCc4c([nH]c5ccccc45)C3c3ccc4c(c3)OCO4)cc2c1` (stereo not shown) [Example 48], 20 nM. Next, `COc1ccc(-c2ccnc(N3CCc4c([nH]c5ccccc45)C3c3ccc4c(c3)OCO4)n2)cc1` (stereo not shown) [Example 49]: 10 nM. As to `c1cnc(N2CCc3c([nH]c4ccccc34)C2c2ccc3c(c2)OCO3)nc1` (stereo not shown) [Example 50], the IC50 was 780 nM. Next, `c1ccc(-c2ccnc(N3CCc4c([nH]c5ccccc45)C3c3ccc4c(c3)OCO4)n2)cc1` (stereo not shown) [Example 51]: 30 nM.

`c1ccc(-c2ccnc(N3CCc4c([nH]c5ccccc45)C3c3ccccc3)n2)cc1` (stereo not shown) [Example 52]: the concentration for half-maximal inhibition (IC50) amounted to 290 nM. Next, `Clc1nc(N2CCc3c([nH]c4ccccc34)C2c2ccc3c(c2)OCO3)c2nc[nH]c2n1` (stereo not shown) [Example 53]: 70 nM; `CN1CCN(c2nccc(N3CCc4c([nH]c5ccccc45)C3c3ccc4c(c3)OCO4)n2)CC1` (stereo not shown) [Example 54]: 560 nM.

Regarding `c1ccc(-c2nccc(N3CCc4c([nH]c5ccccc45)C3c3ccc4c(c3)OCO4)n2)cc1` (stereo not shown) [Example 55], the IC50 was 20 nM. As to `c1csc(-c2nccc(N3CCc4c([nH]c5ccccc45)C3c3ccc4c(c3)OCO4)n2)c1` (stereo not shown) [Example 56], the IC50 is 40 nM. With `c1ccc2c3c([nH]c2c1)C(c1ccc2c(c1)CCO2)N(c1ccnc(-n2ccnc2)n1)CC3` (stereo not shown) [Example 57], the IC50 was found to be 60 nM. The result for `c1ccc(-c2ccnc(N3CCc4c([nH]c5ccccc45)C3c3ccc4c(c3)CCO4)n2)cc1` (stereo not shown) [Example 58] reads 30 nM. Regarding `c1cncc(-c2ccnc(N3CCc4c([nH]c5ccccc45)C3c3ccc4c(c3)CCO4)n2)c1` (stereo not shown) [Example 59], the IC50 came to 40 nM.

In the case of `c1ccc2c3c([nH]c2c1)C(c1ccc2c(c1)CCO2)N(c1nccc(-n2ccnc2)n1)CC3` (stereo not shown) [Example 60], the IC50 worked out at 70 nM. The result for `c1cncc(-c2nccc(N3CCc4c([nH]c5ccccc45)C3c3ccc4c(c3)CCO4)n2)c1` (stereo not shown) [Example 61] reads 40 nM; that for `c1csc(-c2nccc(N3CCc4c([nH]c5ccccc45)C3c3ccc4c(c3)CCO4)n2)c1` (stereo not shown) [Example 62], 50 nM. Consider `Cc1nccn1-c1nccc(N2CCc3c([nH]c4ccccc34)C2c2ccc3c(c2)CCO3)n1` (stereo not shown) [Example 63], for which the IC50 was determined as 40 nM.

For `c1ccc2c3c([nH]c2c1)C(c1ccc2c(c1)CCO2)N(c1ccnc(N2CCCCC2)n1)CC3` (stereo not shown) [Example 64], the half-inhibitory concentration (IC50) worked out at 760 nM. Next, `c1ccc2c3c([nH]c2c1)C(c1ccc2c(c1)CCO2)N(c1cc(-n2ccnc2)ncn1)CC3` (stereo not shown) [Example 65]: 20 nM; `c1coc(-c2ccnc(N3CCc4c([nH]c5ccccc45)C3c3ccc4c(c3)CCO4)n2)c1` (stereo not shown) [Example 66]: 340 nM. Take `c1coc(-c2nccc(N3CCc4c([nH]c5ccccc45)C3c3ccc4c(c3)CCO4)n2)c1` (stereo not shown) [Example 67]: the half-inhibitory concentration (IC50) amounted to 70 nM. Next, `Cc1nccn1-c1cc(N2CCc3c([nH]c4ccccc34)C2c2ccc3c(c2)CCO3)ncn1` (stereo not shown) [Example 68]: 20 nM.

Take `c1cncc(-c2nccc(N3CCc4c([nH]c5ccccc45)C3c3ccc4c(c3)CCO4)n2)c1` (stereo not shown) [Example 69]: the IC50 worked out at 9 nM. Take `CN(C)CCOc1ccc(-c2ccnc(N3CCc4c([nH]c5ccccc45)C3c3ccc4c(c3)CCO4)n2)cc1` (stereo not shown) [Example 70]: the IC50 worked out at 20 nM. The result for `Cc1ncn(-c2cc(N3CCc4c([nH]c5ccccc45)C3c3ccc4c(c3)CCO4)ncn2)c1C` (stereo not shown) [Example 71] reads 20 nM; that for `Oc1ccc(-c2ccnc(N3CCc4c([nH]c5ccccc45)C3c3ccc4c(c3)CCO4)n2)cc1` (stereo not shown) [Example 72], 10 nM. Turning to `Cc1ncn(-c2nccc(N3CCc4c([nH]c5ccccc45)C3c3ccc4c(c3)CCO4)n2)c1C` (stereo not shown) [Example 73], the IC50 was 30 nM. The result for `Cc1cn(-c2ccnc(N3CCc4c([nH]c5ccccc45)C3c3ccc4c(c3)CCO4)n2)cn1` (stereo not shown) [Example 74] reads 40 nM. The result for `c1ccc(-c2cc(N3CCc4c([nH]c5ccccc45)C3c3ccc4c(c3)CCO4)ncn2)cc1` (stereo not shown) [Example 75] reads 7 nM. The result for `Cc1cn(-c2cc(N3CCc4c([nH]c5ccccc45)C3c3ccc4c(c3)CCO4)ncn2)cn1` (stereo not shown) [Example 76] reads 10 nM.
